What was measured:
[1] = Acid dissociation constants (pKa) by titration; type: physicochemical; conditions: pH at semi-neutralization point of titration with 0.1 N NaOH or HCl
Procedure: The following equipment was used during the implementation of all the examples: • for melting point determination a Buchi B-540 instrument was used; • the pKa is the pH at the semi-neutralization point of titration using a Mettler Toledo DL-50 instrument with a 0.1 N NaOH or HC! solution; • the ^1H-NMR spectra were recorded at 300 MHz and the ^13C-NMR spectra were recorded at 75 MHz using a Varian Unity 300 instrument; • spectrophotometric measurements were carried out using a Lambda Perkin Elmer 15 UV/Vis spectrophotometer for the DPPH assay and a Wallac Victor 1420 multilabel counter spectrophotometer.

[2] = system: C6 cells (rat glioma) and BAEC cells (bovine aortic endothelial); assay: In vitro inhibition of CHP-induced oxidative stress (DCF fluorescence); type: cell-based; conditions: 500 µM CHP, 4, 20, 100 and 500 µM compound, 30 minutes; depending on the concentrations and cell line
Procedure: The method used was essentially the one reported by Rüweler M. et al. ("Inhibition of peroxide-induced radical generation by plant polyphenols in C6 astroglioma cells" (2008) Toxicol in vitro 22, 1377-81), with a few minor modifications.
The cells were seeded in phenol-red free DMEM (Sigma Aldrich) into 96-well plates with 5% FBS and 20 mM HEPES at a density of 40,000 cells/well. After 48 hours, the medium was substituted by HBSS (Hanks' Balanced Salt Solution, Sigma) containing 10 µM of dihydro-2',7'-dichlorofluorescein diacetate (H2DCF-DA, Sigma Aldrich) and incubated in darkness for 30 minutes at 37 °C, in order to load the cells with fluorescent dye. H2DCF-DA was hydrolyzed enzymatically by the intracellular esterases to form non-fluorescent H2DCF, which was then rapidly oxidized to form 2',7'-dichlorofluorescein (DCF) being highly fluorescent in the presence of reactive species (RS). The intensity of DCF fluorescence is directly proportional to the amount of RS formed.
After carrying out two washes, the cells were exposed to 500 µM of CHP and various concentrations (4, 20, 100 and 500 µM) of the compounds of the invention for 30 minutes at 37 °C. Fluorescence was then measured, after cell washing, by a microplate reader at an excitation wavelength of 485 nm and an emission wavelength of 535 nm.
Six wells per plate per concentration of test composition (compound + CHP) and per control (HBSS without CHP) were measured and 12 wells were used as reference for CHP-induced stress. In addition, each 96-well plate contained 6 wells that received the highest concentration of the tested compounds without CHP, to investigate whether the compounds of the invention alone were able to induce cellular radical formation.
When using this assay, it should be borne in mind that DCF fluorescence is a generalized indicator of oxidative stress rather than of any particular reactive species, i.e. it is not a direct assay for H2O2 or other reactive species (Halliwell B, Whiteman M. (2004) "Measuring reactive species and oxidative damage in vivo and in cell culture: how should you do it and what do the results mean?" Br. J. Pharmacol. 142 231-255). Therefore, when an increase in DCF fluorescence induced by exposure of cells to CHP was measured, as was carried out in these assays, it was not possible to deduce which reactive species was responsible. Inhibition of CHP-induced fluorescence was evaluated by means of different concentrations of the compounds of the invention and comparative compounds such as Trolox and edaravone.

[3] = system: female CD-1 mice; assay: Acute toxicity study, intraperitoneal, single dose; conditions: in vivo
Procedure: This study was carried out with the purpose of investigating the toxicity of a single dose of the listed compounds administered to ICR (CD-1) female mice. According to the current OECD guideline no.
The mice used were all female and were treated by intraperitoneal injection administration. The animals were observed individually and regularly for the first 4 hours and within 24 hours after administration, and then twice a day for the whole observation period. As soon as the animals were stabilized, observations at the weekend were undertaken once only during the day.
The evaluated parameters included the survival, body weight development, variations in skin and fur, changes in ocular, conjunctival and buccal mucous membranes, changes in activities of the respiratory, circulatory, autonomous and central nervous systems, changes in somatomotor activity and in behaviour.
Any appearance of tremors, convulsions, salivation, diarrhea, lethargy, drowsiness and coma were attentively and regularly monitored. At the end of the observation period, a post-mortem was carried out on all the animals.

| Structure (SMILES) | pKa1 [1] | pKa2 [1] | Inhibition of CHP-induced fluorescence [2] | toxic effect ([3]; Example 23) | toxic effect ([3]; mouse) |
| --- | --- | --- | --- | --- | --- |
| O=C1CCC(=O)C1C1COCCN1O (stereo not shown) [(7), 2-(4-hydroxymorpholin-3-yl)-cyclopentane-1,3-dione] | 2.32 | 4.98 |  |  |  |
| CC1=NN(c2ccccc2)C(=O)C1C1COCCN1O (stereo not shown) [(11), 4-(4-hydroxymorpholin-3-yl)-3-methyl-1-phenyl-1H-pyrazol-5(4H)-one] | 3.31 | 6.92 | effective |  |  |
| O=C1c2ccccc2C(=O)C1C1COCCN1O (stereo not shown) [(8), 2-(4-hydroxymorpholin-3-yl)-2H-indene-1,3-dione] | 2.17 | 5.98 | effective | no toxic effect |  |
| CC1=NN(c2ccccc2)C(=O)C1 [edaravone, reference compound] |  |  | 10-50% |  |  |
| O=C1CC(c2ccccc2)CC(=O)C1C1COCCN1O (stereo not shown) [(5), 2-(4-hydroxymorpholin-3-yl)-5-phenylcyclohexane-1,3-dione] | 2.71 | 6.44 |  |  | no toxic effect |
| O=c1oc2ccccc2c(O)c1C1COCCN1O (stereo not shown) [(10), 4-hydroxy-3-(4-hydroxymorpholin-3-yl)-2H-chromen-2-one] | 2.70 | 6.14 |  | no toxic effect |  |
| CC1(C)CC(=O)C(C2COCCN2O)C(=O)C1 (stereo not shown) [(4), 2-(4-hydroxymorpholin-3-yl)-5,5-dimethylcyclohexane-1,3-dione] | 2.28 | 6.15 | effective | no toxic effect |  |
| CC1(C)CC(=O)C(C2CCCCN2O)C(=O)C1 (stereo not shown) [(3), 2-(1-hydroxypiperidin-2-yl)-5,5-dimethylcyclohexane-1,3-dione] | 3.47 | 6.92 |  |  |  |

— EP2345639A1, “Cyclic hydroxylamine derivatives, their preparation and use as antioxidants” (ABIOGEN PHARMA S.p.A., priority 2009, dated 2011)
